Patent US20100168135A1, “Method of Inducing Cleavage of Amyloid Precursor Protein to Form a Novel Fragment” (priority 2008, published 2010)

Assays:
[1] = system: 3xTg-AD mice; assay: Morris water maze in 3xTg-AD mice; assay type: in vivo, mouse
Procedure: (§1) 3xTg-AD mice of approximately one year of age were treated for 2 months with ST101. An average dose of 5 mg/kg/day was administered in drinking water (calculated dose, based on mean water consumption). Behavioral effects were tested by assessing performance on the Morris Water Maze. Biochemical effects were examined by measuring brain content of Aβ and APP by ELISA and Western Blot.
Behavioral Effects: Performance of 3xTg-AD Mice in the Morris Water Maze (MWM), adapted from Roozendaal et al., Proc. Natl. Acad. Sci. U.S.A. 100: 1328-1333 (2003).
The MWM tests both spatial memory (i.e. hippocampus dependent) and cued learning (i.e. non-hippocampal) in rodents. The maze is a circular tank filled with opaque water. Mice are placed in the water and must swim to find and escape onto a platform submerged 1.5 cm beneath the surface of the water. The time (in seconds) required to find the platform is recorded. Animals rely on visual cues in the room containing the tank in order to find the platform on successive challenges. Training was conducted daily for seven consecutive days.
Retention of training was assessed twice, 24 and 72 hours after the final training trial. Animals were subjected to a 60-second free swim in the tank with the platform removed. Parameters measured included (1) latency: time required to reach the former platform location and (2) crosses: the number of times the animal swam across the former platform location.

[2] = system: APP and C-terminal fragments in the brains of 3xTg-AD mice; assay: Western blot of brain extracts with antibody CT20, 2-month treatment (Examples 4 and 5); assay type: in vivo, mouse; details: antibody CT20, brains of 3xTg-AD mice, 5 mg/kg/day for 2 months
Procedure: as §1
To attempt to determine at what part in the Aβ processing/release pathway ST101 may be active, a series of Western blot analyses of brain extracts from the same mice were conducted. These Westerns blots examined intact APP as well as products of its post-translational processing and subsequent degradation.
FIG. 4 is a Western blot that depicts APP C-terminal fragments detected by antibody CT20 in the brains of ST101-treated (S) 3xTg-AD mice, relative to untreated (C) 3xTg mice-AD.
FIG. 5 is a Western blot that depicts APP and degradation fragments detected by antibody CT20 in the brains of ST101-treated (S) 3xTg-AD mice, relative to untreated (C) 3xTg-AD mice. “CT20” stands for full length APP species, and “Actin” stands for anti-beta-actin antibody as a protein loading control.

[3] = system: Senescence Accelerated Mouse 8 (SAMP8); details: cited from earlier work
[4] = system: APP C-terminal fragments in the brains of 3xTg-AD mice; assay: Western blot of brains with antibody 1565-1, 2.5-month treatment (Example 8); assay type: in vivo, mouse; details: antibody 1565-1, 3xTg-AD mice, 5 mg/kg/day for 2.5 months
Procedure: 3xTg-AD mice of approximately 12 months of age were treated for 2.5 months with ST101. An average dose of 5 mg/kg/day was administered in drinking water (calculated dose, based on mean water consumption).
FIG. 8 is a Western blot that depicts C-terminal fragments detected by antibody 1565-1 (Epitomics Inc.) in the brains of ST101-treated (S) 3xTg-AD mice, relative to untreated (C) 3xTg mice-AD.

[5] = system: extracellular ACh and dopamine; assay: Extracellular ACh and dopamine concentrations in cerebral cortex and hippocampus; assay type: in vivo
[6] = system: APP C-terminal fragments in the brains of 3xTg-AD mice; assay: Western blot of brains with antibody CT20, 10-month treatment (Example 7); assay type: in vivo, mouse; details: antibody CT20, 3xTg-AD mice, 5 or 1 or 0.1 mg/kg/day for 10 months; in some samples
Procedure: 3xTg-AD mice of approximately 3 months of age were treated for 10 months with ST101. An average dose of 5 or 1 or 0.1 mg/kg/day was administered in drinking water (calculated dose, based on mean water consumption).
FIGS. 7A-C are Western blots that depict APP C-terminal fragments detected by antibody CT20 in the brains of ST101-treated (S) 3xTg-AD mice, relative to untreated (C) 3xTg-AD mice.

[7] = system: N2a cells; assay: Aβ production by N2a cultured cells, ELISA of tissue culture medium; assay type: cell-based, murine; details: 24 hours treatment, vs control
Procedure: N2a is a murine neuroblastoma cell line that is known to produce amyloid peptides Aβ1-40 and Aβ1-42 in amounts measurable by ELISA assays. These forms of Aβ have been correlated with the pathology in AD brain and Aβ1-42 in particular is postulated to have the ability to block α7 nicotinic receptors and to produce direct neurotoxic effects. N2a cells were treated for 24 hours with ST101 added to the tissue culture medium. Tissue culture medium was collected and analyzed by ELISA for the presence of Aβ.
FIGS. 1A and 1B are bar graphs that depict the effect of the compound ST101 on Aβ production by N2a cells. FIG. 1A is a bar graph that depicts the Aβ concentration in the cell culture medium as a function of ST101 concentration compared to control. FIG. 1B a bar graph that depicts the ratio of Aβ1-42 to Aβ1-40 as a function of ST101 concentration compared to control.

[8] = system: rodent models of learning and memory; details: cited from earlier work
[9] = system: acetylcholine (ACh); assay: Nicotine-stimulated release of acetylcholine
[10] = 5 mg/kg/day for 2 months, at both 24 and 72 hours after training

## O=C1N=C2C=CC=CN2C12Cc1ccccc1C2 [ST101, spiro(imidazo[1,2-a]pyridin-2(3H)-one-3,2′-indan)]
[1]; [10]
  crosses during retention testing: increases in crosses
  latency during retention testing: reductions in latency
[1]; 5 mg/kg/day in drinking water for 2 months, vs controls
  latency on successive days of the training: greater reductions in latency
[2]; vs untreated
  C83 C-terminal APP fragment: substantial decrease
  C99 C-terminal APP fragment: substantial decrease
  major APP degradation intermediate (~50 kDa): disappearance or significant reduction
  novel, longer C-terminal fragment of about 17 kDa: appearance
[2]; some full-length species
  full-length APP species (band shifts): slightly lowered molecular weight
[3]; brain tissue
  accumulation of Aβ-like deposits: decreased
[3]
  learning and memory functions: improvement
[4]
  longer C-terminal fragment of about 17 kDa: not observed
[4]; vs untreated
  APP C99 fragment: disappearance or significant reduction
[5]; cerebral cortex
  extracellular ACh concentrations: increases
[5]; hippocampus
  extracellular concentrations of ACh: increases
  extracellular concentrations of dopamine: increases
[6]
  major APP degradation intermediate (~50 kDa): disappearance or significant reduction
  novel, longer C-terminal fragment of about 17 kDa: appearance
[7]
  Aβ1-40 in cell culture medium: without major effects
  Aβ1-42 in cell culture medium: significantly reduced
[8]; methamphetamine, MK-801, scopolamine
  memory deficits induced by chemical amnesic agents: attenuates
[8]; rodent models
  age-impaired memory: significantly improves
[9]
  nicotine-stimulated release of acetylcholine (ACh): potentiates
